Counter-ions that a name gives are not always drawn. Like-named read-outs stand apart in the source and are kept apart here.
Tests used:
[1] = target: T1, Cathepsin D (Mus musculus, UniProt P18242); experiment: Mouse hepatic lysosomal cathepsin D activity; type: biochemical
T1 construct: azocasein assay pH 5.0
Description: (§1) 1. Cf1 male mouse hepatic 10% homogenates in 0.25M sucrose+0.001MEDTA,pH 7.2.
(§2) Lysosomal Enzymes - free and total [triton X-100].
(§3) 2. Acid Cathepsin D -azocasein-pH 5.0, hydrolytic azo-peptide produce 366 nm.
Cathepsin azo casein activity -

[2] = test system: Cathepsin; experiment: Human leukocyte cathepsin; type: cell-based; conditions: Table XIX; read-out: Human Leukocyte IC50 (head gives no enzyme; beside Cathepsin D)
Description: 5. Human peripheral leukocytes, RPMI-1788
as §3

[3] = target: T2, 5'-Lipoxygenase (Homo sapiens, UniProt P09917); experiment: Human leukocyte 5'-lipoxygenase; type: cell-based
T2 construct: human leukocyte tissue culture cells; endogenous in cells; host or cells: Human peripheral leukocytes, RPMI-1788
T2 sequence (P09917 1-674): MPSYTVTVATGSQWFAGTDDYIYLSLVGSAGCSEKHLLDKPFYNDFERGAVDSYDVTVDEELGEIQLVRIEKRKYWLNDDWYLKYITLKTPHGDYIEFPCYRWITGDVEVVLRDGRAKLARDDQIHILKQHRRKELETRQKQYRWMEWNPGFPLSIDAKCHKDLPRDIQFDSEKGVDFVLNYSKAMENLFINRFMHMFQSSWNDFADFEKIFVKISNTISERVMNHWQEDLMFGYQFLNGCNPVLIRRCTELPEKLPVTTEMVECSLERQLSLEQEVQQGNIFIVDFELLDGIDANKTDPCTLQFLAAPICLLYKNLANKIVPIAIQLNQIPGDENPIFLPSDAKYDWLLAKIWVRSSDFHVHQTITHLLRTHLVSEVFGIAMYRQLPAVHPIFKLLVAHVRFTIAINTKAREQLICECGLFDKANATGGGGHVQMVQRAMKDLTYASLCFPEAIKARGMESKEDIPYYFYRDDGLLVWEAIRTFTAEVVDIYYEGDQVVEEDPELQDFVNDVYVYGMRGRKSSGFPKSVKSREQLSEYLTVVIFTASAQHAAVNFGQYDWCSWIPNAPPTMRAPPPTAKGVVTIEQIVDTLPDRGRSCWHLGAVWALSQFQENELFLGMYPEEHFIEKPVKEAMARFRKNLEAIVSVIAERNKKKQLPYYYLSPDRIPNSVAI

[4] = test system: Hydroxyproline; experiment: Serum and urine hydroxyproline levels in vivo; conditions: Cf1 male mice, 8 mg/kg/day I.P. 14 days, N=6
[5] = test system: Phosphorus; experiment: Serum and urine inorganic phosphorus levels in vivo; conditions: Cf1 male mice, 8 mg/kg/day I.P. 14 days, N=6
[6] = test system: Calcium; experiment: Serum and urine calcium levels in vivo; conditions: Cf1 male mice, 8 mg/kg/day I.P. 14 days, N=6
[7] = test system: Cf1 male mice; experiment: Writhing reflex, 0.6% acetic acid; type: in vivo; conditions: Table XIV; unit inferred; unit assumed
Experimental: Writhing reflex- Cf1 -male mice- 0.6% acetic acid I.P. drugs administered @20 mg/kg/ I.P. 20 min. later - the # of stretches/10 min.
Hendershot, L.C., et al, J.

[8] = test system: Acid phosphatase; experiment: Mouse macrophage acid phosphatase activity; type: cell-based; conditions: Table XVII; mouse macrophage, 60 min incubation; read-out: Acid Phosphatase IC50
[9] = test system: Prostaglandin cyclooxygenase; experiment: Mouse macrophage prostaglandin cyclooxygenase activity; type: cell-based; conditions: Table XVIII; mouse macrophage, 60 min incubation; read-out: Prostaglandin Cyclooxygenase IC50
Description: (§4) 3. Mouse macrophages J774A.1 BALB/c
Prostaglandin synthetase purified beef seminal vesicle ^3 H arachidonic acid (86.2 Ci/mmol), tlc separation.

[10] = test system: Aryl sulphatase; experiment: Mouse macrophage aryl sulphatase activity; type: cell-based; conditions: Table XVII; mouse macrophage, 60 min incubation; read-out: Aryl Sulphatase IC50
[11] = target: Commercial Collagenase; experiment: Commercial collagenase (type not stated); type: biochemical; conditions: Table XVI; 60 min incubation; sodium salt
Description: 3. Collagenase I, Clostridium histolyticum, bone, skin, tendon, blood vessel, dentine, GI. substrate: rat collagen, N-[propionate-2-3-^3 H] propionylated measured as dpm released.
4. Collagenase II, Clostridium histolyticum, cartilage collagen.

[12] = target: Aryl sulphatase; experiment: Mouse hepatic lysosomal aryl sulphatase activity; type: biochemical; conditions: Table XV, 60 min incubation
Description: as §1, §2
3. Aryl sulphatase- p-nitrocatechol sulfate, pH
5. 8 p-nitro-catechol product 510 nm.

[13] = target: Acid phosphatase; experiment: Mouse hepatic lysosomal acid phosphatase activity; type: biochemical; conditions: Table XV; mouse hepatic, 60 min incubation
Description: as §1, §2
1. Acid phosphatase -beta glycerol-3-phosphate, pH 5.0, released IP 720 nm.
Acid phosphatase activity -

[14] = test system: Trypsin; experiment: Mouse hepatic trypsin activity; type: biochemical; conditions: Table XVI; 60 min incubation; read-out: Mouse Hepatic Trypsin IC50
Description: as §1
1. Trypsin- N-benzoyl-L-arginine ethyl ester pH 8.0, hydrolytic product 253 nm.

[15] = target: T1, Cathepsin D; experiment: Mouse macrophage cathepsin D activity; type: cell-based; conditions: Table XVII; mouse macrophage, 60 min incubation; read-out: Cathepsin D pH 5.0 IC50
Description: as §4, §3

[16] = test system: Trypsin; experiment: Mouse macrophage trypsin (BAEE) activity; type: cell-based; conditions: Table XVIII; mouse macrophage, 60 min incubation; read-out: Trypsin BAEE IC50
[17] = target: T3, Pg. cyclooxygenase (Sus scrofa, UniProt A0A287ANF9); experiment: Porcine seminal vesicles Pg. cyclooxygenase; type: biochemical
T3 construct: Porcine Seminal; from tissue; the methods section prints beef seminal vesicle
T3 sequence (A0A287ANF9 25-600): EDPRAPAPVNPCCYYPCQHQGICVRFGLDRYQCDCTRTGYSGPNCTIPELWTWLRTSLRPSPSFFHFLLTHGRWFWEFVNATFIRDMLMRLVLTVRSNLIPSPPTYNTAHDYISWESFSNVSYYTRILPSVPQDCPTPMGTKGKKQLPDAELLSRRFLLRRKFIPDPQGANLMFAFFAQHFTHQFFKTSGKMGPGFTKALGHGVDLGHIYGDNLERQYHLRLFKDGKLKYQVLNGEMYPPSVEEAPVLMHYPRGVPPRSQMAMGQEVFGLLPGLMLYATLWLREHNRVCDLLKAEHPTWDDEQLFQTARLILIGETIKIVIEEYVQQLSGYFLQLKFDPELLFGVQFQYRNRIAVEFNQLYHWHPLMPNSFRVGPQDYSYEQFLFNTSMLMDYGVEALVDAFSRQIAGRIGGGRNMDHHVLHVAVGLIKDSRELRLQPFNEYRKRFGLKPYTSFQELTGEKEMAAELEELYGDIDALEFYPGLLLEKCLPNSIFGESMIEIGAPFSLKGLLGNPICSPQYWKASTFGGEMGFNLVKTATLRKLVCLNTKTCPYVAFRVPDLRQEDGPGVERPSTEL

[18] = test system: Cf1 male mice; experiment: Hot plate tail flick test; type: in vivo; conditions: Table XIV; unit not given
[19] = test system: Elastase; experiment: Mouse macrophage elastase activity; type: cell-based; conditions: Table XVIII; mouse macrophage, 60 min incubation; read-out: Elastase IC50
Description: Elastase- N-succinyl-L-alanyl-L-alanine-p-nitroanilide, pH 8.0, p-nitro anilide 410 nm.

[20] = test system: Cf1 male mice; experiment: Anti-inflammatory screen, Winter's test, 2% carrageenan hind foot; type: in vivo; conditions: Table XIV; unit inferred; unit assumed
Experimental: Anti-inflammatory Screen- Cf1 - male mice-Winter's Test 2% carrageenan S.C. plantar surface of hind foot, drugs administered @8 or 10 mg/kg I.P. 2X
Winter, C.A., et al, Proc. Soc.

[21] = read-out: Mouse Hepatic Cathepsin D IC50, Table XIX

T1 sequence (P18242 65-410): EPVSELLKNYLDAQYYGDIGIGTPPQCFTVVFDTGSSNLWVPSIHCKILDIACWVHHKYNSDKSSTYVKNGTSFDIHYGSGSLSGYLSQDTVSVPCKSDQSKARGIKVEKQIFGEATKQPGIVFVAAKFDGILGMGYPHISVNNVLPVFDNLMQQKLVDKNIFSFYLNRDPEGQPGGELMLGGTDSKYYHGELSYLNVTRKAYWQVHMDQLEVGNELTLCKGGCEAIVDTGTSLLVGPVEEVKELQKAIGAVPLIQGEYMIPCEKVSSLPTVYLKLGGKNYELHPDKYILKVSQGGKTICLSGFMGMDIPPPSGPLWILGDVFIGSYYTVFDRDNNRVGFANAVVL

## N#C[BH2-][n+]1c(N)ccn([C@H]2C[C@H](O)[C@@H](CO)O2)c1=O [Compound 39, 2'-Deoxycytidine-N3-cyanoborane]
[1]; Table XIX, read-out: Mouse Hepatic Cathepsin D IC50
  IC50: 26 µM
[2]
  IC50: 8.72 µM
[3]; Table XIX, read-out: Leukocyte 5' lipoxygenase IC50
  IC50: 12.8 µM

## CC[NH2+][BH2-]C(=O)O [CH3 CH2 NH2 BH2 COOH]
[4]
  Hydroxyproline serum: 89.1 % Control
  Hydroxyproline urine: 69.2 % Control
[5]
  Phosphorus serum: 64.3 % Control
  Phosphorus urine: 78.0 % Control
[6]
  Calcium serum: 121.0 % Control
  Calcium urine: 61.2 % Control

## COC(=O)[BH2-][NH+](C)C [(CH3)2 NHBH2 COOCH3, Dimethylamine-carbomethoxyborane]
[4]
  Hydroxyproline serum: 84.4 % Control
  Hydroxyproline urine: 50.5 % Control
[5]
  Phosphorus serum: 42.8 % Control
  Phosphorus urine: 67.8 % Control
[6]
  Calcium serum: 125.4 % Control
  Calcium urine: 80.7 % Control

## CC(C)[Si](OC[C@H]1O[C@@H](n2cnc3c(=O)[nH]cnc32)C[C@@H]1O[Si](C(C)C)(C(C)C)C(C)C)(C(C)C)C(C)C [Compound 29]
[1]; [21]
  IC50: 79.6 µM
[2]
  IC50: 31.8 µM
[3]
  IC50: 8.85 µM

## CC(C)[Si](OC[C@H]1O[C@@H](n2ccc(N)nc2=O)C[C@@H]1O[Si](C(C)C)(C(C)C)C(C)C)(C(C)C)C(C)C [Compound 38]
[1]; [21]
  IC50: 59.7 µM
[2]
  IC50: 13.9 µM
[3]
  IC50: 7.72 µM

## C[N+](C)(C)[BH2-]C(=O)O [Compound 22, Trimethylamine-carboxyborane, sodium salt]
[7]
  Writhing Reflex Mice: 76.5%
[8]
  IC50: 2 µM
[9]
  IC50: 2.41 µM
[10]
  IC50: 1.33 µM
[11]
  IC50: 490 µM
[1]; Table XV, mouse hepatic, 60 min incubation, read-out: Cathepsin D IC50
  IC50: 6.69 µM
[12]
  IC50: 5.15 µM
[13]
  IC50: 3.56 µM
[14]
  IC50: 9.98 µM
[15]
  IC50: 1.92 µM
[16]
  IC50: 2.27 µM
[17]
  IC50: 2.4 µM
[18]
  Tail Flick Mice: 101
[19]
  IC50: 7.26 µM
[20]
  Anti-Inflammation Cf1 Mice: 73.4%

## CC(C)[Si](OC[C@H]1O[C@@H](n2cnc3c(N)ncnc32)C[C@@H]1O[Si](C(C)C)(C(C)C)C(C)C)(C(C)C)C(C)C [Compound 35]
[1]; [21]
  IC50: 58.1 µM
[2]
  IC50: 33.4 µM
[3]
  IC50: 10.1 µM

From patent publication US5312816A, “Method of combatting osteoporosis in mammalian subjects, utilizing organic boron compounds” (priority 1993, dated 1994)
